{
  "source": "paper PMC10354055",
  "about": "“An optimized Nurr1 agonist provides disease-modifying effects in Parkinson’s disease models” (Nature Communications, 2023)",
  "assay_type_in_all_cases": "cell-based",
  "key": {"Nurr1-LBD point mutants [1]": {"biological_target": "T1, Nurr1-LBD point mutants (Mus musculus, UniProt Q06219, S441A)", "T1 construct": "expressed in transfected cells; host or cells: SK-N-BE(2)C", "T1 sequence (Q06219 whole entry S441A, the tested form may be a part)": "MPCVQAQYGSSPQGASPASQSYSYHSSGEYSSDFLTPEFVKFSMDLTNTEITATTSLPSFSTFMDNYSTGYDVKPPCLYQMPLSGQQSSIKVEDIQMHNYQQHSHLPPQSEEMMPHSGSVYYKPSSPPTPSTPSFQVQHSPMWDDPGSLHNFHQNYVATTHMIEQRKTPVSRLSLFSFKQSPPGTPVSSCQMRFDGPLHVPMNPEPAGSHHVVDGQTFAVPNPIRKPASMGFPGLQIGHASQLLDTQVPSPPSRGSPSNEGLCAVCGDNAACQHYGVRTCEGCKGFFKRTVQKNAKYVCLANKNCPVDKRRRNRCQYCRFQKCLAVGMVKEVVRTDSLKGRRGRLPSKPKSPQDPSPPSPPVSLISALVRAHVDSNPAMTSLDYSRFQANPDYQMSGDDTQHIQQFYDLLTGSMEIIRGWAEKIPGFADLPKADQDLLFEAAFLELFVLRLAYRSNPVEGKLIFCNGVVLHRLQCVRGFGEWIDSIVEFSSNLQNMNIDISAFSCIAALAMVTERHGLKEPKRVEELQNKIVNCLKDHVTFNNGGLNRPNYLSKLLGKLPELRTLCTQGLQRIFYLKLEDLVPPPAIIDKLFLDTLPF", "assay": "Luciferase assay with point-mutants of Nurr1-LBD, SK-N-BE(2)C cells;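 also: Firefly luciferase normalized to beta-galactosidase activity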", "conditions": "Supplementary Fig. 2, S441A", "protocol": "(§1) Nurr1 transactivity was normalized to β-galactosidase activity.\n(§2) Nurr1 mutants were generated using the QuikChange ǁ XL site-directed mutagenesis kit (Agilent Technologies) according to the manufacturer’s instruction. Mutagenesis reactions were carried out on the plasmid of mouse Nurr1 cloned into pcDNA3.1 backbone, and then verified by sequencing."}, "Nurr1-LBD point mutants [2]": {"biological_target": "T2, Nurr1-LBD point mutants (Mus musculus, UniProt Q06219, L593A)", "T2 construct": "expressed in transfected cells; host or cells: SK-N-BE(2)C", "T2 sequence (Q06219 whole entry L593A, the tested form may be a part)": "as the sequence (Q06219 whole entry S441A, the tested form may be a part) above, with A441S, L593A counted along it", "assay": "Luciferase assay with point-mutants of Nurr1-LBD, SK-N-BE(2)C cells", "conditions": "Supplementary Fig. 2, L593A", "protocol": "as §1, §2"}, "Nurr1-LBD point mutants [3]": {"biological_target": "T3, Nurr1-LBD point mutants (Mus musculus, UniProt Q06219, K590A)", "T3 construct": "expressed in transfected cells; host or cells: SK-N-BE(2)C", "T3 sequence (Q06219 whole entry K590A, the tested form may be a part)": "as the sequence (Q06219 whole entry S441A, the tested form may be a part) above, with A441S, K590A counted along it", "assay": "Luciferase assay with point-mutants of Nurr1-LBD, SK-N-BE(2)C cells", "conditions": "Supplementary Fig. 2, K590A", "protocol": "as §1, §2"}, "Nurr1-LBD point mutants [4]": {"biological_target": "T4, Nurr1-LBD point mutants (Mus musculus, UniProt Q06219, D594A)", "T4 construct": "expressed in transfected cells; host or cells: SK-N-BE(2)C", "T4 sequence (Q06219 whole entry D594A, the tested form may be a part)": "as the sequence (Q06219 whole entry S441A, the tested form may be a part) above, with A441S, D594A counted along it", "assay": "Luciferase assay with point-mutants of Nurr1-LBD, SK-N-BE(2)C cells", "conditions": "Supplementary Fig. 2, D594A", "protocol": "as §1, §2"}, "Nurr1-LBD point mutants [5]": {"biological_target": "T5, Nurr1-LBD point mutants (Mus musculus, UniProt Q06219)", "T5 construct": "expressed in transfected cells; host or cells: SK-N-BE(2)C", "T5 sequence (Q06219 whole entry, change not shown, the tested form may be a part)": "as the sequence (Q06219 whole entry S441A, the tested form may be a part) above, with A441S counted along it", "assay": "Luciferase assay with point-mutants of Nurr1-LBD, SK-N-BE(2)C cells", "conditions": "Supplementary Fig. 2, WT", "protocol": "as §1, §2"}, "Nor1": {"biological_target": "T6, Nor1 (Homo sapiens, UniProt Q92570)", "T6 construct": "using LBD of NR4A subfamily members in SK-N-BE(2)C cells; expressed in transfected cells; host or cells: SK-N-BE(2)C", "T6 sequence (Q92570 394-623 limits assumed)": "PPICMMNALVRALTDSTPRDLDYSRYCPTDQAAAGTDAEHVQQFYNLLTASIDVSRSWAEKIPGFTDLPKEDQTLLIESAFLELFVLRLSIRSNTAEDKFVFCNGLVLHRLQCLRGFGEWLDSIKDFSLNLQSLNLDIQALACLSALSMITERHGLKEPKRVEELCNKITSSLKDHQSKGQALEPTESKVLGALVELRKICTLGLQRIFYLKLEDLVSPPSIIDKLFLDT", "assay": "Luciferase reporter assay, Nor1 LBD, SK-N-BE(2)C cells", "conditions": "Fig. 1f; CQ 100 µM, 4A7C-301 20 µM, PGA1 10 µM"}},
  "note": "“And” between values parts separate entries of the source, which are not always exact repeats. Equal values may be shown once.",
  "data": [
    {"smiles": "CCCCC[C@H](O)/C=C/[C@H]1C=CC(=O)[C@@H]1CCCCCCC(=O)O", "note": "[PGA1, Prostaglandin A1]", "values": [
      {"measurement": "Luciferase activity (fold)", "setting": "Nurr1-LBD point mutants [1]", "result": "12.6359 fold and 12.6237 fold and 10.9807 fold"},
      {"measurement": "Luciferase activity (fold)", "setting": "Nurr1-LBD point mutants [2]", "result": "11.666 fold and 12.1821 fold and 11.0369 fold"},
      {"measurement": "Luciferase activity (fold)", "setting": "Nurr1-LBD point mutants [3]", "result": "12.5774 fold and 11.0052 fold and 12.4192 fold"},
      {"measurement": "Luciferase activity (fold)", "setting": "Nurr1-LBD point mutants [4]", "result": "12.291 fold and 11.1318 fold and 11.3674 fold"},
      {"measurement": "Luciferase activity (fold)", "setting": "Nurr1-LBD point mutants [5]", "result": "12.6112 fold and 12.2963 fold and 12.2061 fold"},
      {"measurement": "Luciferase activity (fold), Nor1", "setting": "Nor1", "result": "8.223 fold and 7.904 fold and 8.304 fold"}
    ]}
  ]
}
